Measurements published in US20250051263A1, “NOVEL IONIZABLE LIPIDS AND LIPID NANOPARTICLES AND METHODS OF USING THE SAME” (Sail Biomedicines, Inc., priority 2021, published 2025).

Assays:
[1] = TNS (pKa) assay, apparent LNP pKa; format: physicochemical; settings: Example 5 LNP lipid:DOPE:Plant Cholesterol:DMPE-PEG2k 35:16:46.5:2.5, FLUC/EPO 1:1 mRNA, N:P 6:1
Experimental: (protocol adapted from: A Novel Amino Lipid Series for mRNA Delivery: Improved Endosomal Escape and Sustained Pharmacology and Safety in Non-human Primates, Sabnis, Staci et al., Molecular Therapy, Volume 26, Issue 6, 1509-1519) 20 buffers (10 mM sodium phosphate, 10 mM sodium borate, 10 mM sodium citrate, and 150 mM sodium chloride, in Distilled Water) of unique pH values ranging from 3.0-12.0 were prepared using 1M sodium hydroxide and 1M hydrochloric acid. 3.25 uL of LNPs (0.04 mg/mL mRNA, in PBS) were incubated with 2 μL of TNS reagent (0.3 mM, in DMSO) and 90 μL of buffer for each pH value (described above) in a 96-well black-walled plate. Each pH condition was performed in triplicate wells. The TNS fluorescence was measured using a Biotek Cytation Plate reader at excitation/emission wavelengths of 321/445 nm. The fluorescence values were then plotted and fit using a 4-parameter sigmoid curve. From the fit, the pH value yielding the half-maximal fluorescence was calculated and reported as the apparent LNP pKa value.
For pKa measurement, a […] assay was conducted according to those described in Sabnis et al., Molecular Therapy, 26(6):1509-19), which is incorporated herein by reference in its entirety. Briefly, 20 buffers (10 mM sodium phosphate, 10 mM sodium borate, 10 mM sodium citrate, and 150 mM sodium chloride, in distilled Water) of unique pH values ranging from 3.0-12.0 were prepared using 1M sodium hydroxide and 1M hydrochloric acid. 3.25 μL of a LNP composition (0.04 mg/mL mRNA, in PBS) was incubated with 2 μL of TNS reagent (0.3 mM, in DMSO) and 90 μL of buffer for each pH value (described above) in a 96-well black-walled plate. Each pH condition was performed in triplicate wells. The TNS fluorescence was measured using a Biotek Cytation Plate reader at excitation/emission wavelengths of 321/445 nm. The fluorescence values were then plotted and fit using a 4-parameter sigmoid curve. From the fit, the pH value yielding the half-maximal fluorescence was calculated and reported as the apparent LNP pKa value.

[2] = LNP size and polydispersity, Zetasizer Ultra; format: physicochemical; settings: Example 5 LNP lipid:DOPE:Plant Cholesterol:DMPE-PEG2k 35:16:46.5:2.5, FLUC/EPO 1:1 mRNA, N:P 6:1
From the text: All other compositions (i.e., compositions of MC3 (a commercially available ionizable lipid having a chemical name of (6Z,9Z,28Z,31Z)-heptatriacont-6,9,28,31-tetraene-19-yl 4-(dimethylamino)butanoate, and compositions of novel ionizable lipids 7669, 7671, 7668, 767, 7650) are composed of ionizable lipid:structural lipid:sterol:PEG-lipid (SDA lipid #:DSPC:cholesterol:14:0 PEG2000 PE) at a molar ratio of […], respectively. Lipids are solubilized in ethanol. Compositions are then handled as above, except the formulations are maintained at ionizable lipid to mRNA N:P ratio of 6:1. The lipid mix and mRNA solution are mixed at a 1:3 ratio by volume, respectively, on a NanoAssemblr Ignite (Precision Nanosystems) at a total flow rate of 9 mL/min. Resulting compositions are then loaded into Slide-A-Lyzer G2 dialysis cassettes (10 k MWCO) and dialyzed in 200 times sample volume of 1×PBS for 4 hrs at room temp with gentle stirring. The PBS is refreshed, and the compositions are further dialyzed for at least 14 hrs at 4° C. with gentle stirring. The dialyzed compositions are then collected and concentrated by centrifugation at 2000×g using Amicon Ultra centrifugation filters (100 k MWCO). Concentrated particles are characterized for size, polydispersity, and particle concentration using Zetasizer Ultra (Malvern Panalytical) and for mRNA encapsulation efficiency using Quant-iT RiboGreen RNA Assay Kit (ThermoFisher Scientific).
The lipid mix and mRNA solution were mixed at a 1:3 ratio by volume, respectively, on the NanoAssemblr Ignite (Precision Nanosystems) at a total flow rate of 9 mL/min. Resulting formulations were then loaded into Slide-A-Lyzer G2 dialysis cassettes (10 k MWCO) and dialyzed in 200 times sample volume of 1×PBS for 2 hrs at room temperature. The PBS was refreshed, and the formulations were further dialyzed for at least 14 hrs at 4° C. with gentle stirring. The dialyzed formulations were then collected and concentrated by centrifugation at 3000×g using Amicon Ultra centrifugation filters (100 k MWCO). The concentrated formulations were characterized for size, polydispersity, and particle concentration using Zetasizer Ultra (Malvern Panalytical) and for mRNA encapsulation efficiency using Quant-iT RiboGreen RNA Assay Kit (ThermoFisher Scientific).
For each LNP composition, the lipid mix and mRNA solution were mixed at a 1:3 ratio by volume, respectively, on a NanoAssemblr Ignite (Precision Nanosystems) at a total flow rate of 9 mL/min. The resulting compositions were then loaded into Slide-A-Lyzer G2 dialysis cassettes (10 k MWCO) and dialyzed in 200 times sample volume of 1×PBS for 2 hours at room temperature with gentle stirring. The PBS was refreshed, and the compositions were further dialyzed for at least 14 hours at 4° C. with gentle stirring. The dialyzed compositions were then collected and concentrated by centrifugation at 3000×g using Amicon Ultra centrifugation filters (100 k MWCO). The concentrated particles were characterized for size, polydispersity, and particle concentration using Zetasizer Ultra (Malvern Panalytical) and for mRNA encapsulation efficiency using Quant-iT RiboGreen RNA Assay Kit (ThermoFisher Scientific).

SMILES | pKa (TNS) [1] | PDI [2] | Size (nm) [2] [nm]
CCCCCC(CCCCC)CCCOC(=O)CCCCCCCN(CCCCCCCC(=O)OCCCC(CCCCC)CCCCC)CCNC(=O)CCC(=O)NCCN(CCCCCCCC(=O)OCCCC(CCCCC)CCCCC)CCCCCCCC(=O)OCCCC(CCCCC)CCCCC [Compound 2332, bis(4-pentyl-nonyl)13,16-dioxo-9,20-bis(8-oxo-8-((4-pentylnon-yl)oxy)octyl)-9,12,17,20-tetraazaocta-cosanedioate] | 6.57 | 0.12 | 68.1
CCCCCCCCCCCOC(=O)CCCCCN(CCCCCCCC(=O)OC(CCCCCCCC)CCCCCCCC)CCCNC(=O)CN(CC(=O)NCCCN(CCCCCCCC(=O)OC(CCCCCCCC)CCCCCCCC)CCCCCC(=O)OCCCCCCCCCCC)C(=O)CCN1CCCC1 [Compound 2353, 1-octylnonyl8-[3-[[2-[[2-[3-[[8-(1-octylnonoxy)-8-oxo-octyl]-(6-oxo-6-undecoxy-hexyl)amino]propylamino]-2-oxo-ethyl]-(3-pyrrolidin-1-ylpropanoyl)amino]acetyl]amino]propyl-(6-oxo-6-undecoxy-hexyl)amino]octanoate] | 7.01 | 0.14 | 85.2
CCCCCCCCCCCC(=O)OCCCCCN(CCCCCCCC(=O)OC(CCCCCCCC)CCCCCCCC)CCNC(=O)CCC(=O)NCCN(CCCCCCCC(=O)OC(CCCCCCCC)CCCCCCCC)CCCCCOC(=O)CCCCCCCCCCC [Compound 2354, 5-[2-[[4-[2-[5-dodecanoyloxypentyl-[8-(1-octylnonoxy)-8-oxo-octyl]amino]ethylamino]-4-oxo-butanoyl]amino]ethyl-[8-(1-octylnonoxy)-8-oxo-octyl]amino] pentyl dodecanoate] | 6.47 | 0.10 | 69.2
CCCCCCCCCC(C)COC(=O)CCCCCN(CCCCCCCC(=O)OC(CCCCCCCC)CCCCCCCC)CCNC(=O)CCC(=O)NCCN(CCCCCCCC(=O)OC(CCCCCCCC)CCCCCCCC)CCCCCC(=O)OCC(C)CCCCCCCCC (stereo not drawn) [Compound 2355, 1-octylnonyl 8-[[6-(2-methylundecoxy)-6-oxo-hexyl]-[2-[[4-[2-[[6-(2-methylundecoxy)-6-oxo-hexyl]-[8-(1-octylnonoxy)-8-oxo-octyl]amino]ethylamino]-4-oxo-butanoyl]amino]ethyl]amino]octanoate] | 6.2 | 0.07 | 74.7
CCCCCCCCCCC(CC)OC(=O)CCCCCN(CCCCCCCC(=O)OC(CCCCCCCC)CCCCCCCC)CCNC(=O)CCC(=O)NCCN(CCCCCCCC(=O)OC(CCCCCCCC)CCCCCCCC)CCCCCC(=O)OC(CC)CCCCCCCCCC (stereo not drawn) [Compound 2356, 1-octylnonyl 8-[[6-(1-ethylundecoxy)-6-oxo-hexyl]-[2-[[4-[2-[[6-(1-ethylundecoxy)-6-oxo-hexyl]-[8-(1-octylnonoxy)-8-oxo-octyl]amino]ethylamino]-4-oxo-butanoyl]amino]ethyl]amino]octanoate] | 6.01 | 0.10 | 74.2
CCCCCCCCCCC(CC)OC(=O)CCCCCN(CCCCCCCC(=O)OC(CCCCCCCC)CCCCCCCC)CCNC(=O)/C=C/C(=O)NCCN(CCCCCCCC(=O)OC(CCCCCCCC)CCCCCCCC)CCCCCC(=O)OC(CC)CCCCCCCCCC (stereo not drawn) [Compound 2378, 1-octylnonyl 8-[[6-(1-ethylundecoxy)-6-oxo-hexyl]-[2-[[(E)-4-[2-[[6-(1-ethylundecoxy)-6-oxo-hexyl]-[8-(1-octylnonoxy)-8-oxo-octyl]amino]ethylamino]-4-oxo-but-2-enoyl]amino]ethyl]amino]octanoate] | 6.33 | 0.08 | 107.8
CCCCCCCCCCCOC(=O)CCCCCN(CCCCCCCC(=O)OCCCC(CCCCC)CCCCC)CCNC(=O)/C=C/C(=O)NCCN(CCCCCCCC(=O)OCCCC(CCCCC)CCCCC)CCCCCC(=O)OCCCCCCCCCCC [Compound 2382, 4-pentylnonyl 8-[2-[[(E)-4-oxo-4-[2-[[8-oxo-8-(4-pentylnonoxy)octyl]-(6-oxo-6-undecoxy-hexyl)amino]ethylamino]but-2-enoyl]amino]ethyl-(6-oxo-6-undecoxy-hexyl)amino]octanoate] | 6.97 | 0.13 | 105.2
CCCCCCCCCCCOC(=O)CCCCCN(CCCCCCCC(=O)OC(CCCCCC)CCCCCCCC)CCNC(=O)CCC(=O)NCCN(CCCCCCCC(=O)OC(CCCCCC)CCCCCCCC)CCCCCC(=O)OCCCCCCCCCCC (stereo not drawn) [Compound 2390, 1-hexylnonyl 8-[2-[[4-[2-[[8-(1-hexylnonoxy)-8-oxo-octyl]-(6-oxo-6-undecoxy-hexyl)amino]ethylamino]-4-oxo-butanoyl]amino]ethyl-(6-oxo-6-undecoxy-hexyl)amino]octanoate] | 6.82 | 0.09 | 71.6
CCCCCCCCCCCOC(=O)CCCCCN(CCCCCCCC(=O)OCCCC(CCCCC)CCCCC)CCN1CCN(CCN(CCCCCCCC(=O)OCCCC(CCCCC)CCCCC)CCCCCC(=O)OCCCCCCCCCCC)CC1 [Compound 2397, 4-pentylnonyl 8-[2-[4-[2-[[8-oxo-8-(4-pentylnonoxy)octyl]-(6-oxo-6-undecoxy-hexyl)amino]ethyl]piperazin-1-yl]ethyl-(6-oxo-6-undecoxy-hexyl)amino]octanoate] | 6.44 | 0.09 | 114.0
